# Data: US20240358782A1, “Regulatory Composition of the Neuro-Immune-Endocrine and Cortisol Reducing System of the Human Being” (priority 2020, published 2024)
# Marks after values point to notes of the source that are not given here.
# Columns and labels:
# [1] = system: chorio-allantoic membrane of hen embryonated egg
# Excerpt: The first step was to evaluate the cytotoxicity of the composition in a chicken embryonated egg chorio-allantoic membrane (HET-CAM) assay (FIG. 1).
# monoamine oxidase (MAO) = conditions: in vitro; cited from earlier work
# male Wistar rats [2] = assay: Serum IL-10, IL-6 and TNF-alpha after 10 days of oral treatment (Example 1, Phase 1); format: in vivo, rat; conditions: oral daily 10 days, dose 257 mg/kgPV (Enramicine 96 mg/kgPV), mean ± standard error
# Experimental: (§1) In Phase 1, the experiment consisted of providing the same amount (in mg), per kg of live weight (mg/kg BW), of each of the components of the composition of this invention, as well as the same amount of the composition, and comparing the effects with that of control animals, which received placebo or the antibiotic Enramycin. After 10 days, an evaluation of the immune system of the […] of each of the groups was carried out.
# (§2) In this way, different groups of male Wistar rats were randomly marked on the tails for identification. The animals were adapted to the laboratory environment for one week before the treatments. Initially, after a 6 h fasting period, the body weight of the animals was determined and the dose of the Composition and Enramycin […] were calculated. The animals were divided into 11 (eleven) groups of 10 (ten) individuals. The animals were treated daily, orally (used in the animals used as reference), with placebo (vehicle; filtered water 1 mL/kg BW) or with FOS Ingredion (257 mg/kg BW), FOS Yes (257 mg/kg BW) kgPV), GOS Yes (257 mg/kgPV), Yes MOS (257 mg/kgPV), Yes GlucanMOS (257 mg/kgPV), Glucangold Yes (77 mg/kgPV), Mixture 1 (FOS Yes+GOS Yes) (257 mg/kgPV), Composition of this invention (GlucanGold Yes+GOS Yes+FOS Yes, containing 20% of 1,3 and 1,6 beta-glucans, 29% of GOS and 31% of FOS by mass on total mass %) ([…]). An experimental group called naive underwent simulated gavage (without any treatment). All the animals that composed the different experimental groups received the treatment for 10 days. At the end of the experiments, and before euthanasia, the animals were fasted for 6 hours with free access to water. Final body weight was recorded to calculate relative organ weight. Then, under anesthesia with isoflurane (2-3%), 5 mL of blood was obtained from the left jugular vein for the evaluation of biochemical parameters. After this procedure, the animals were euthanized with a supra-pharmacological dose of isoflurane (10-15%) in a saturation chamber. […]
# [3] = system: Salmonella enterica serovar Enteritidis (phagetype PT4); assay: Salmonella challenge: deaths and serum cytokines (Example 1, phase 2); format: in vivo, rat; conditions: oral treatment 20 days, dose 257 mg/kgPV (Enramicine 96 mg/kgPV)
# Excerpt: In phase 2, the experiment consisted of repeating the treatments of Phase 1, for 10 days, and inoculating the groups, except the so-called naive (negative control), with a high dose of Salmonella enteritidis. After 20 days, the mortality and the behavior of the immune system of the rats of each group were observed.
# In this way, different groups of male rats were randomly marked on the tails for identification. The animals were adapted to the laboratory environment for one week before the beginning of the experiments. After a 6 h fasting period, the animals' body weight was determined and the dose of the prebiotics, the composition of this invention and Enramycin were calculated. The animals were divided into 11 (eleven) groups of 10 (ten) individuals. The animals were treated daily, by the oral route (used in the animals used as reference), with placebo (vehicle; filtered water 1 mL/kg BW) or with FOS ingredion (257 mg/kg BW), FOS Yes (257 mg/kg BW). kgPV), GOS Yes (257 mg/kgPV), Yes MOS (257 mg/kgPV), GlucanMOS (257 mg/kgPV), Glucangold Yes (77 mg/kgPV), Mixture 1 (FOS Yes+GOS Yes) (257 mg/kgPV), Composition of this invention (GlucanGold Yes+GOS Yes+FOS Yes, containing 20% of 1,3 and 1,6 beta-glucans, 31% of GOS and 29% of FOS by mass on mass %) ([…]). All treatments were performed for 20 days. After 10 days from the beginning of treatments, the aforementioned groups received a challenge with 1 mL (10^8 colony forming units [cfu]/mL) of a strain of Salmonella enterica serovar Enteritidis (phagetype PT4), orally (gavage).
# An experimental group called naive underwent sham gavage (no treatment) and was not infected with any bacterial strain. At the end of the experiments, and before euthanasia, the surviving animals were fasted for 6 hours with free access to water. Then, under anesthesia with isoflurane (2-3%), 5 mL of blood was obtained from the left jugular vein for the evaluation of biochemical parameters. After this procedure, the animals were euthanized with a supra-pharmacological dose of isoflurane (10-15%) in a saturation chamber. Immediately after euthanasia, target organs were removed for analysis.
# Table 8, below, indicates the effects of treatments with different isolated components, with the Composition according to the invention, or with Enramincin, on the serum levels of interleukin 10 (IL-10), IL-6 and tumor necrosis factor alpha (TNF-alpha) from male Wistar rats infected with Salmonella enterica.
# male Wistar rats [4] = assay: Serum redox state markers after 10 days of oral treatment (Example 1, Phase 1); format: in vivo, rat; conditions: oral daily 10 days, dose 257 ml/kgPV, mean ± standard error
# Experimental: as §1, §2
# male Wistar rats [5] = assay: Tissue levels of lipoperoxides (LPO) after 10 days of oral treatment (Example 1, Phase 1); format: in vivo, rat; conditions: oral daily 10 days, mean ± standard error
# [6] = serum, Salmonella-infected male Wistar rats, mean ± standard error
# [7] = dose 257 mg/kgPV (Enramicine 96 mg/kgPV)
# [8] = dose 257 ml/kgPV (Enramicine 96 ml/kgPV)
compound,measurement,setting,value
"[Na+].[OH-] [NAOH, Sodium Hydroxide]",hemorrhagic (cytotoxic) effect / irritation on chorio-allantoic membrane,[1],"lyse blood vessels, resulting in hemorrhage"
COc1cc(C2Oc3cc([C@H]4Oc5cc(O)cc(O)c5C(=O)[C@@H]4O)ccc3OC2CO)ccc1O (stereo partly drawn) [siliinin],inhibition of monoamine oxidase (MAO) activity,monoamine oxidase (MAO),inhibits the activity of monoamine oxidase (MAO)
Enramycin [Enramicine],IL-6,male Wistar rats [2],210.5 ± 25.5 pg/mL
same,IL-10,male Wistar rats [2],15.3 ± 5.1 pg/mL
same,TFN-alfa,male Wistar rats [2],8.0 ± 1.5 pg/mL
same,Deaths,"[3]; male Wistar rats, Salmonella enterica challenge (1 mL, 10^8 cfu/mL) after 10 days",0%
same,IL-6,[3]; [6],249.7 ± 37.7 pg/mL
same,IL-10,[3]; [6],16.6 ± 0.9^b pg/ml
same,TFN-alfa,[3]; [6],10.7 ± 1.1^b pg/ml
same,Malondialdehyde,male Wistar rats [4],2.1 ± 0.15 mmol/L
same,Nitrite,male Wistar rats [4],45.3 ± 5.51%
same,Nitrotirosine,male Wistar rats [4],0.007 ± 0.003 µmol/L
same,"LPO, Kidneys",male Wistar rats [5]; [7],119.4 ± 7.1 U/mg of protein
same,"LPO, Liver",male Wistar rats [5]; [7],170.1 ± 14.1 U/mg of protein
same,"LPO, Spleen",male Wistar rats [5]; [7],117.5 ± 10.1 U/mg of protein
same,"tissue lipoperoxides (LPO), Cecum",male Wistar rats [5]; [8],170.2 ± 10.0
same,"tissue lipoperoxides (LPO), Colon",male Wistar rats [5]; [8],230.2 ± 11.2
same,"tissue lipoperoxides (LPO), Ileum",male Wistar rats [5]; [8],117.9 ± 14.2
